Patent publication US11020457B2, “Compositions and methods for protecting the kidney from ischemia reperfusion injury” (University of Virginia Patent Foundation, priority 2013, dated 2021)
“Also recorded” adds a separate entry of the source.

Experiments:
Format in all cases: in vivo
[1] = system: C57BL/6 mice; assay: Renal IRI in WT mice: 4-HNE immunohistochemistry (oxidative stress); conditions: hepcidin-treated vs untreated IRI mice, FIG. 4a
Procedure: (§1) All experiments were performed in accordance with the National Institutes of Health and Institutional Animal Care and Use Guidelines. The Animal Care and Use Committee of the University of Virginia approved all procedures and protocols. C57BL/6 mice from the Jackson Laboratory and hepcidin knockout mice (HAMP−/−), a kind gift from Dr Cindy Roy (John Hopkins University) were used in this study. All experiments were performed on 8-10 weeks old male mice. Kidney ischemia-reperfusion surgery was performed as previously reported (44). The core temperature of the mice was maintained between 34° C. and 36° C. using a heating pad. After anesthetizing the mice (ketamine, 12 mg/ml; atropine, 0.48 mg/ml; xylazine, 24 mg/ml; […] mixture administered per 20 g body weight), bilateral flank incisions were made, both renal pedicles were exposed, and cross-clamped for 26 minutes (severe I/R injury) or 24 minutes (mild I/R injury). After the determined ischemia, clamps were removed, and kidneys were allowed to reperfuse for 24 hours. Ambient postoperative air temperature was maintained between 30° C. and 32° C. until mice had fully recovered. […]
Kidney sections were embedded in paraffin, 3 μm sectioned, and stained for 4 Hydroxynonenal (4-HNE) using standard protocols. […] Sections were washed 3 times in NaPO4 buffer, and then incubated in ABC ready-to-use reagent (Vector Labs) for 30 minutes. […]

[2] = system: C57BL/6 mice; assay: Renal IRI in WT mice: Western blot of kidney ferroportin and H-Ferritin; conditions: for kidney ferroportin expression (membrane fraction): pretreatment with hepcidin, p<0.01, FIG. 5a-b
Procedure: as §1, with “recovered. Sham-operated animals underwent bilateral flank incisions without clamping of renal pedicles. Twenty-four hours later, mice were euthanized, and tissues were harvested.” for “recovered.”
Snap frozen tissue sections were homogenized in Tris-Triton tissue lysis buffer containing complete protease inhibitor cocktail using a Dounce Homogenizer. […] H-Ferritin was measured in the whole kidney and spleen lysates. […] The primary antibodies were detected with Donkey anti-goat Alexa 800 and goat anti-rabbit Alexa 800 antibodies (LiCor Bioscience). Mouse monoclonal GAPDH and β-Actin (Abcam) were used as the loading controls and detected using Donkey anti Mouse Alexa 680 antibody (LiCor Bioscience). Quantitation of data was performed using densitometry software (Licor Bioscience).

[3] = system: hepcidin knockout mice (HAMP−/−); assay: Mild renal IRI in HAMP-/- mice: 4-HNE staining and immunofluorescence of neutrophils and CD11b cells; conditions: for kidney 4-HNE immunoreactivity: hepcidin reconstituted HAMP-/- IRI, FIG. 8c; for kidney neutrophil and CD11b cell infiltration: hepcidin reconstitution in HAMP-/- IRI mice, FIGS. 8e and g
Procedure: All experiments were performed in accordance with the National Institutes of Health and Institutional Animal Care and Use Guidelines. The Animal Care and Use Committee of the University of Virginia approved all procedures and protocols. C57BL/6 mice from the Jackson Laboratory and hepcidin knockout mice (HAMP−/−), a kind gift from Dr Cindy Roy (John Hopkins University) were used in this study. All experiments were performed on 8-10 weeks old male mice. Kidney ischemia-reperfusion surgery was performed as previously reported (44). The core temperature of the mice was maintained between 34° C. and 36° C. using a heating pad. After anesthetizing the mice (ketamine, 12 mg/ml; atropine, 0.48 mg/ml; xylazine, 24 mg/ml; […] mixture administered per 20 g body weight), bilateral flank incisions were made, both renal pedicles were exposed, and cross-clamped for 26 minutes (severe I/R injury) or 24 minutes (mild I/R injury). After the determined ischemia, clamps were removed, and kidneys were allowed to reperfuse for 24 hours. Ambient postoperative air temperature was maintained between 30° C. and 32° C. until mice had fully recovered. Sham-operated animals underwent bilateral flank incisions without clamping of renal pedicles. Twenty-four hours later, mice were euthanized, and tissues were harvested.
Kidney sections were embedded in paraffin, 3 μm sectioned, and stained for 4 Hydroxynonenal (4-HNE) using standard protocols. Briefly sections were deparaffanized in xylenes, rehydrated in a series of ethanol rinses from 100% to 70% ethanol, then washed in distilled water. Sections were then incubated in 3% H2O2 in methanol for 20 minutes. After treating with Avidin and Biotin for 15 minutes each (Vector) the sections were blocked in blocking buffer containing 10% donkey serum in sodium phosphate buffer (NaPO4 buffer), at room temperature for 30 minutes. 4-HNE antibody was diluted in 1% BSA in NaPO4 buffer (Abcam; 1:1000) and added to sections overnight at 4° C. Sections were washed 3 times with NaPO4 buffer for 5 minutes each and incubated with biotinylated donkey anti-goat secondary antibody (Vector) for 1 hour. Sections were washed 3 times in NaPO4 buffer, and then incubated in ABC ready-to-use reagent (Vector Labs) for 30 minutes. After another 3 washes with NaPO4 buffer the sections exposed to diaminobenzidine (DAB) for 5 minutes followed by washing with in distilled water. The sections were counter-stained with 1% methylene blue solution, washed in water and dehydrated with xylene. Sections were imaged by using a Zeiss Axio Imager Z2/Apotome Microscope fitted with motorized focus drives and motorized XYZ microscope stage and integrated to a workstation running StereoInvestigator software, version 10.51 (MBF Bioscience, Williston, Vt.) […]

Question: Which “kidney 4-HNE immunoreactivity (oxidative stress)” value [1] does the source give for “Mouse hepcidin 25 (DTNFPICIFCCKCCNNSQCGICCKT; listed as Mus musculus)” here?
Answer: Its value is “reduced the reactivity to 4 HNE; also recorded: markedly reduced”.

Question: What about the “kidney 4-HNE immunoreactivity (oxidative stress)” value ([1]; listed as hepcidin) of the same substance?
Answer: Its value is “far less 4-HNE immunoreactivity”.

Question: And the “kidney H-Ferritin expression” value ([2]; hepcidin-IRI Vs IRI p<0.005, Vs Sham p<0.05, FIG. 5c-d)?
Answer: Its value is “significantly higher H-Ferritin expression compared to both untreated IRI mice and sham mice; also recorded: prevented”.

Question: What about the “kidney ferroportin expression (membrane fraction)” value [2] of the same substance?
Answer: The value was “prevented the IRI induced upregulation”.

Question: What about the “kidney ferroportin expression (membrane fraction)” value ([2]; listed as hepcidin) of the same substance?
Answer: Its value is “levels comparable to sham mice”.

Question: And the “kidney 4-HNE immunoreactivity” value [3]?
Answer: The value was “little reactivity to 4 HNE”.

Question: And the “kidney 4-HNE immunoreactivity” value ([3]; listed as hepcidin)?
Answer: The value was “far less immunoreactivity to 4-HNE”.

Question: What about the “kidney neutrophil and CD11b cell infiltration” value [3] of the same substance?
Answer: The value was “dramatically reduced”.

Question: And the “kidney neutrophil and CD11b cell infiltration” value ([3]; listed as hepcidin)?
Answer: The value was “almost completely prevented kidney injury-associated neutrophil or CD11b cell infiltration”.
